Data published in patent US10711000B2 (Fronthera U.S. Pharmaceuticals LLC, priority 2018, dated 2020).
Like-named read-outs stand apart in the source and are kept apart here.

Molecular target: T1, Autotaxin (Homo sapiens, UniProt Q13822)
T1 construct: from tissue; host or cells: pooled human plasma
Test: LPA formation in pooled human plasma (ex vivo autotaxin inhibition)
Format: biochemical
Conditions: 2 hours incubation
Description: Autotaxin is a plasma phosphodiesterase that converts lysophosphatidylcholine (LPC) into lysophosphatidic acid (LPA), therefore LPA formation was used to evaluate the potency of autotaxin inhibitors. The potency of compound was evaluated ex vivo in pooled human plasma.
Various concentrations of compound were incubated with plasma for 2 hours, and the LPA 18:2 and 20:4 concentration was measured by LC/MS/MS. To determine the LPA18:2 or 20:4 concentration in study plasma, a 10× calibration standard of LPA 18:2 or 20:4 were prepared by serial dilution in butyl alcohol: 20000, 10000, 5000, 2000, 1000, 500, 200, 100, 50, 20, and 10 ng/mL. 3 μL of calibration standard solution was added into 27.0 μL of blank plasma in 1.5-mL microcentrifuge tubes to generate 1× calibration standards. The 30.0 μL of standards or study plasma was added into 1.5-mL microcentrifuge tubes. 200 μL of butyl alcohol (containing 25.0 ng/mL LPA17:0 for internal control) was added into each 1.5-mL microcentrifuge tube containing study plasma or calibration standards. After vortexing for 1 minute and centrifuging at 10000 rpm for 10 min, 180 μL of supernatant was transferred into a 96-well plate and the LPA18:2 concentration in the plasma was quantitated using LC/MS/MS together with standards. Briefly, 8 μL of the solutions were injected for LC-MS/MS analysis using an ACQUITY UPLC BEH C18 column (2.1×50 mm, 1.7 μm) with mobile phase A [20 mM NH4OAC in water (0.1% FA)] and phase B [5 mM NH4OAC in water/0.2% FA in ACN=5:95]. Mass spectrometer parameters optimization for LPA18:2 were performed by Deprotonated molecular ion at m/z 433.2 ([M−H]^−) for LPA18:2, 457.2 for LPA20:4 and abundant product ion at m/z 152.8 for both LPA18:2 and LPA20:4 were obtained. Quantitative data were acquired in multiple reaction monitoring (MRM) negative electrospray ionization mode
The inhibition rate of LPA formation was determined by comparing the levels of LPA in treated and non-treated plasma. The data was plotted against the corresponding concentration of compound and the IC50 was calculated through non-linear regression fitting.

[1] = LPA 18:2 by LC/MS/MS, read-out: LPA formation (18:2) (IC50)
[2] = LPA 20:4 by LC/MS/MS, read-out: LPA formation (20:4) (IC50)

IC50 [1] [µM] | IC50 [2] [µM] | SMILES
0.1 to 0.5 | 0.1 to 0.5 | CCc1nn2c(C)cc(N3CC4(CCN(C(=O)[C@H]5CCCO5)C4)C3)cc2c1N(C)c1nc(-c2ccc(F)cc2)c(C#N)s1 [Example 46, (R)-2-((2-ethyl-7-methyl-5-(6-(tetrahydrofuran-2-carbonyl)-2,6-diazaspiro[3.4]octan-2-yl)pyrazolo[1,5-a]pyridin-3-yl)(methyl)amino)-4-(4-fluorophenyl)thiazole-5-carbonitrile]
≤ 0.1 | ≤ 0.1 | CCn1nc2ncc(N3CCN(CC(=O)N4CC(O)C4)CC3)cc2c1N(C)c1nc(-c2ccc(F)cc2)c(C#N)s1 [Compound 115, 2-((2-ethyl-5-(4-(2-(3-hydroxyazetidin-1-yl)-2-oxoethyl)piperazin-1-yl)-2H-pyrazolo[3,4-b]pyridin-3-yl)(methyl)amino)-4-(4-fluorophenyl)thiazole-5-carbonitrile]
> 1 | > 1 | CCc1nn2c(C)cc(N3CCC4(CCN(C)C4=O)CC3)cc2c1N(C)c1nc(-c2ccc(F)cc2)c(C#N)s1 [Example 50, 2-((2-ethyl-7-methyl-5-(2-methyl-1-oxo-2,8-diazaspiro[4.5]decan-8-yl)pyrazolo[1,5-a]pyridin-3-yl)(methyl)amino)-4-(4-fluorophenyl)thiazole-5-carbonitrile]
0.1 to 0.5 | 0.1 to 0.5 | CCc1nn2ccc(N3CC4(CN(C(=O)[C@@H]5CCOC5)C4)C3)cc2c1N(C)c1nc(-c2ccc(F)cc2)c(C#N)s1 [Example 9, (R)-2-((2-ethyl-5-(6-(tetrahydrofuran-3-carbonyl)-2,6-diazaspiro[3.3]heptan-2-yl)pyrazolo[1,5-a]pyridin-3-yl)(methyl)amino)-4-(4-fluorophenyl)thiazole-5-carbonitrile]
≤ 0.1 | ≤ 0.1 | CCc1nn2c(C)cc(N3CC4(CN(C(=O)N5CC(O)C5)C4)C3)cc2c1N(C)c1nc(-c2ccc(F)cc2)c(C#N)s1 [Example 28, 2-((2-ethyl-5-(6-(3-hydroxyazetidine-1-carbonyl)-2,6-diazaspiro[3.3]heptan-2-yl)-7-methylpyrazolo[1,5-a]pyridin-3-yl)(methyl)amino)-4-(4-fluorophenyl)thiazole-5-carbonitrile]
≤ 0.1 | ≤ 0.1 | CN(c1nc(-c2ccc(F)cc2)c(C#N)s1)c1c(C2CC2)nn2ccc(N3CCN(CC(=O)N4CC(O)C4)CC3)cc12 [Example 21, 2-((2-cyclopropyl-5-(4-(2-(3-hydroxyazetidin-1-yl)-2-oxoethyl)piperazin-1-yl)pyrazolo[1,5-a]pyridin-3-yl)(methyl)amino)-4-(4-fluorophenyl)thiazole-5-carbonitrile]
≤ 0.1 | ≤ 0.1 | CCc1nn2ccc(N3CC4(CCN(C(=O)N5CC(O)C5)C4)C3)cc2c1N(C)c1nc(-c2ccc(F)cc2)c(C#N)s1 [Example 15, 2-((2-ethyl-5-(6-(3-hydroxyazetidine-1-carbonyl)-2,6-diazaspiro[3.4]octan-2-yl)pyrazolo[1,5-a]pyridin-3-yl)(methyl)amino)-4-(4-fluorophenyl)thiazole-5-carbonitrile]
≤ 0.1 | ≤ 0.1 | CCc1nn2ccc(N3CCC4(CCN(C(=O)N5CC(O)C5)CC4)C3)cc2c1N(C)c1nc(-c2ccc(F)cc2)c(C#N)s1 [Example 17, 2-((2-ethyl-5-(8-(3-hydroxyazetidine-1-carbonyl)-2,8-diazaspiro[4.5]decan-2-yl)pyrazolo[1,5-a]pyridin-3-yl)(methyl)amino)-4-(4-fluorophenyl)thiazole-5-carbonitrile]
≤ 0.1 | ≤ 0.1 | CCc1nn2c(C)cc(N3CCN(CC(=O)N4CC[C@@H](O)C4)CC3)cc2c1N(C)c1nc(-c2ccc(F)cc2)c(C#N)s1 [Example 25, (R)-2-((2-ethyl-5-(4-(2-(3-hydroxypyrrolidin-1-yl)-2-oxoethyl)piperazin-1-yl)-7-methylpyrazolo[1,5-a]pyridin-3-yl)(methyl)pamino)-4-(4-fluorophenyl)thiazole-5-carbonitrile]
0.1 to 0.5 | 0.1 to 0.5 | CCc1nn2c(C)cc(N3CC4(CN(C(=O)[C@@H]5COC[C@H]5O)C4)C3)cc2c1N(C)c1nc(-c2ccc(F)cc2)c(C#N)s1 (stereo in doubt) [Example 74, 2-((2-ethyl-5-(6-(4-hydroxytetrahydrofuran-3-carbonyl)-2,6-diazaspiro[3.3]heptan-2-yl)-7-methylpyrazolo[1,5-a]pyridin-3-yl)(methyl)amino)-4-(4-fluorophenyl)thiazole-5-carbonitrile]
≤ 0.1 | ≤ 0.1 | CCc1nn2ccc(N3CCN(CC(=O)N4CC[C@H](O)C4)CC3)cc2c1N(C)c1nc(-c2ccc(F)cc2)c(C#N)s1 [Example 2, (S)-2-((2-ethyl-5-(4-(2-(3-hydroxypyrrolidin-1-yl)-2-oxoethyl)piperazin-1-yl)pyrazolo[1,5-a]pyridin-3-yl)(methyl)amino)-4-(4-fluorophenyl)thiazole-5-carbonitrile]
≤ 0.1 | ≤ 0.1 | CCc1nn2c(C)cc(N3CC4(CN(C(=O)N5CCOCC5)C4)C3)cc2c1N(C)c1nc(-c2ccc(F)cc2)c(C#N)s1 [Example 42]
≤ 0.1 | ≤ 0.1 | CCc1nn2c(C)cc(N3CCC4(CN(C(=O)N5CC(O)C5)C4)C3)cc2c1N(C)c1nc(-c2ccc(F)cc2)c(C#N)s1 [Example 36, 2-((2-ethyl-5-(2-(3-hydroxyazetidine-1-carbonyl)-2,6-diazaspiro[3.4]octan-6-yl)-7-methylpyrazolo[1,5-a]pyridin-3-yl)(methyl)amino)-4-(4-fluorophenyl)thiazole-5-carbonitrile]
≤ 0.1 | ≤ 0.1 | Cc1cc(N2CCC3(CN(C(=O)[C@H]4CCOC4)C3)C2)cc2c(N(C)c3nc(-c4ccc(F)cc4)c(C#N)s3)c(C3CC3)nn12 [Example 86, (S)-2-((2-cyclopropyl-7-methyl-5-(2-(tetrahydrofuran-3-carbonyl)-2,6-diazaspiro[3.4]octan-6-yl)pyrazolo[1,5-a]pyridin-3-yl)(methyl)amino)-4-(4-fluorophenyl)thiazole-5-carbonitrile]
≤ 0.1 | ≤ 0.1 | CCc1nn2c(C)cc(N3CC4(CN(C(=O)C(C)(C)O)C4)C3)cc2c1N(C)c1nc(-c2ccc(F)cc2)c(C#N)s1 [Example 30, 2-((2-ethyl-5-(6-(2-hydroxy-2-methylpropanoyl)-2,6-diazaspiro[3.3]heptan-2-yl)-7-methylpyrazolo[1,5-a]pyridin-3-yl)(methyl)amino)-4-(4-fluorophenyl)thiazole-5-carbonitrile]
≤ 0.1 | ≤ 0.1 | CCc1nn2cc(F)c(N3CC4(CN(C(=O)N5CC(O)C5)C4)C3)cc2c1N(C)c1nc(-c2ccc(F)cc2)c(C#N)s1 [Example 107, 2-((2-ethyl-6-fluoro-5-(6-(3-hydroxyazetidine-1-carbonyl)-2,6-diazaspiro[3.3]heptan-2-yl)pyrazolo[1,5-a]pyridin-3-yl)(methyl)amino)-4-(4-fluorophenyl)thiazole-5-carbonitrile]
≤ 0.1 | ≤ 0.1 | CCc1nn2c(C)cc(N3CC4(CN(C(=O)[C@H]5CCOC5)C4)C3)cc2c1N(C)c1nc(-c2ccc(F)cc2)c(C#N)s1 [Example 39, (S)-2-((2-ethyl-7-methyl-5-(6-(tetrahydrofuran-3-carbonyl)-2,6-diazaspiro[3.3]heptan-2-yl)pyrazolo[1,5-a]pyridin-3-yl)(methyl)amino)-4-(4-fluorophenyl)thiazole-5-carbonitrile]
0.5 to 1 | 0.5 to 1 | CCn1nc2c(C)cc(N3CCN(CC(=O)N4CC(O)C4)CC3)cc2c1N(C)c1nc(-c2ccc(F)cc2)c(C#N)s1 [Compound 125, 2-((2-ethyl-5-(4-(2-(3-hydroxyazetidin-1-yl)-2-oxoethyl)piperazin-1-yl)-7-methyl-2H-indazol-3-yl)(methyl)amino)-4-(4-fluorophenyl)thiazole-5-carbonitrile]
0.1 to 0.5 | 0.1 to 0.5 | CCc1nn2c(C)cc(N3CC4(CN(C(=O)c5ccon5)C4)C3)cc2c1N(C)c1nc(-c2ccc(F)cc2)c(C#N)s1 [Example 70, 2-((2-ethyl-5-(6-(isoxazole-3-carbonyl)-2,6-diazaspiro[3.3]heptan-2-yl)-7-methylpyrazolo[1,5-a]pyridin-3-yl)(methyl)amino)-4-(4-fluorophenyl)thiazole-5-carbonitrile]
0.1 to 0.5 | ≤ 0.1 | CCc1nn2c(C)cc(N3CCN(CC(=O)N(C)C)CC3)cc2c1N(C)c1nc(-c2ccc(F)cc2)c(C#N)s1 [Example 24, 2-(4-(3-((5-cyano-4-(4-fluorophenyl)thiazol-2-yl)(methyl)amino)-2-ethyl-7-methylpyrazolo[1,5-a]pyridin-5-yl)piperazin-1-yl)-N,N-dimethylacetamide]
